Source: article PMC9169614, “Decrypting a cryptic allosteric pocket in H. pylori glutamate racemase” (Communications Chemistry, 2021)

Key:
H. pylori GR = tested on: H. pylori GR; set-up: method as in earlier work; details: ref 8 (Lundqvist et al.); cited from earlier work
[1] = set-up: method as in PMID 31876113; details: carboxylic acid form (α-carboxylate protonated by Cys181); cited from earlier work
[2] = molecular target: T1, H. pylori glutamate racemase (GR) (Helicobacter pylori, UniProt Q9ZLT0); assay: Surface plasmon resonance (SPR) binding to immobilized GR; details: 1:1 Langmuir binding model, absence of substrate D-Glu, 25 °C, 500-7.81 µM dilution series
T1 construct: made in house; host or cells: E. coli BL21 (DE3) pLysS, co-expressed with GroEL/ES
T1 sequence (Q9ZLT0 whole entry): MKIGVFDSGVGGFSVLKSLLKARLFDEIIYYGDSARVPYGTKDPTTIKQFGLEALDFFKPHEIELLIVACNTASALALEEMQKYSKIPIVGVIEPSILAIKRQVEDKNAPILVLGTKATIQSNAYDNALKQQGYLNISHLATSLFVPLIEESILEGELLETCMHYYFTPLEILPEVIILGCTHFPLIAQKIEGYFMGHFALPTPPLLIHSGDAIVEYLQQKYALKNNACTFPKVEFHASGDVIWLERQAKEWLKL
Experimental: We first evaluated the binding affinity of these compounds to H. pylori GR by Surface Plasmon Resonance (SPR). A combination of amine coupling and HisCapture was used to immobilize the protein on the surface of the SPR biosensor. Compounds were injected onto the sensor in increasing concentrations using a dilution series ranging from 500 µM to 7.81 µM (7 concentrations).
Experiments were performed using a SensiQ Pioneer SPR. The biosensor chip was first equilibrated with SPR running buffer (50 mM Tris-HCl, 100 mM NaCl, TCEP, 1% v/v TWEEN, pH 8.0), then the surface of the biosensor chip was seasoned by injecting 200 μL 50 mM NaOH at 40 μL/min, 200 μL 0.1% v/v SDS at 40 μL/min, and 200 μL 10 mM HCl at 40 μL/min in the test and reference biosensor chip flow channels. This process of seasoning was repeated twice. All buffers and solutions were filter sterilized with 0.22-μm buffer filters before using on the SPR instrument. After seasoning, the lines were primed three times with SPR buffer. […]
H. pylori GR was immobilized to the biosensor using a HisCapture couple method detailed above. […] All sensograms were analyzed using the program Qdat (2.6.3.0) and it fitted to a model of simple binding of 1:1 Langmuir binding model for all virtual hits. […]

[3] = molecular target: T1, H. pylori glutamate racemase (GR); assay: Coupled-enzyme assay (L-glutamate dehydrogenase/diaphorase) of D- to L-glutamate racemization; format: biochemical; details: 1.25 mM D-Glu, 2 µM GR, 50 mM TRIS pH 8, 5% DMSO; mean ± SE n = 3 for NP-020560 and Compound A, other hits single repeat
Experimental: The D- to L-glutamate racemization activities of H. pylori GR was assayed through a previously established coupled-enzyme method, utilizing L-glutamate dehydrogenase and diaphorase[40]. […] The assay consists of 1.25 mM D-Glu, 2.51 mM ADP, 5 mM NAD, 0.506 mM INT, 5 Units of L-GDH, 0.4 units of diaphorase and 2 µM GR in 50 mM TRIS, pH = 8. Compound stocks solutions of varying concentrations (100 µM–50 mM) were made in DMSO and introduced in the assay vials. The final DMSO concentration after addition of compounds in the assay was 5% v/v. […] Absorption for the reduced iodonitrotetrazolium was collected by measuring absorbance at 500 nm at 1 min interval for 60 min on Cary 300 UV-VIS Spectrophotometer from Varian (Palo Alto, CA). Absorbance for each compound concentration at every time point were normalized to absorbance for blank, followed by calculating slopes for each concentration. The calculated slopes with the respective log (inhibitor concertation) were fitted to log(inhibitor) vs response (three parameters) model within ‘Nonlinear Regression-Dose Response Inhibition’ in GraphPad Prism version 8.4.3. The program provides output as IC50 and LogIC50 along with respective standard errors, and for ease of expression, we report inhibition data as IC50 (mean ± SE).

Which IC50 (H. pylori GR) does the source give for CC(C)Cn1c(=O)n(C)c(=O)c2c(-c3ccncc3)n(Cc3cccc4ccccc34)nc21 [Compound A] here?
The IC50 was 5 µM.

With N[C@H](CCC(=O)O)C(=O)O [D-Glu, D-glutamate] as the compound, how does the “pKa of α-carbon of D-Glu substrate” value [1] read?
Its value is 14.4.

With Cc1cc2c(c(-c3c(O)c(C)cc4c3C(=O)c3c(O)cc(O)cc3C4=O)c1O)C(=O)c1c(O)cc(O)cc1C2=O [NP-020560] as the compound, how does the Kd [2] read?
Its Kd is 54.7 ± 0.3 µM.

What about the IC50 [3] of the same compound?
Its IC50 is 6.6 ± 3.1 µM.
